Laboratory results: patent publication US20080161309A1, “Novel Compounds” (priority 2004, published 2008)
Counter-ions that a name gives are not always drawn. Like-named read-outs stand apart in the source and are kept apart here.

What was measured:
[1] = tested on: capsaicin-induced mechanical allodynia; assay: Rat model of capsaicin-induced mechanical allodynia; format: in vivo; details: sc, read-out: % Inhibition of allodynia
Experimental: Compounds of the present invention may be assayed for their ability to treat fibromylagia—like pain in a rat model of capsaicin-induced mechanical allodynia (e.g., Sluka, K A, (2002) J of Neuroscience, 22(13): 5687-5693). For example, a rat model of capsaicin-induced mechanical allodynia) was be carried out as follows:
On day 0, male Sprague-Dawley rats (˜150 g) in the dark cycle were placed in suspended wire-bottom cages and allowed to acclimate for 0.5 hour in a darkened, quiet room. The day 0 paw withdrawal threshold (PWT) was determined on the left hind paw by Von Frey hair assessment using the Dixon up and down method. After assessment, the plantar muscle of the right hind paw was injected with 100 μl capsaicin (0.25% (w/v) in 10% ethanol, 10% Tween 80, in sterile saline). On day 6 the PWT of the left hindpaw (contralateral from injection site) was determined for each animal. Animals from the day 6 prereads with PWT≦11.7 g were considered allodynic responders and were regrouped so that each cage had similar mean PWT values. On day 7, responders were dosed subcutaneously with 10 mg compound/kg body weight, or with vehicle alone. The vehicle was phosphate buffered saline containing 2% Cremophor® EL (BASF). The contralateral PWT values were determined at 1 hour after the single dose, with the investigator blinded to the dosing scheme.
In addition, the day 6 PWT was subtracted from the day 0 PWT to give the baseline window of allodynia present in each animal.

[2] = molecular target: T1, human norepinephrine transporter (hNET) (Homo sapiens, UniProt P23975); assay: hNET receptor binding, [125I]-RTI-55, HEK-293 membranes; details: Cheng-Prusoff, read-out: NET Ki
T1 construct: expressed in transfected cells; host or cells: HEK-293, membranes
T1 sequence (P23975 whole entry): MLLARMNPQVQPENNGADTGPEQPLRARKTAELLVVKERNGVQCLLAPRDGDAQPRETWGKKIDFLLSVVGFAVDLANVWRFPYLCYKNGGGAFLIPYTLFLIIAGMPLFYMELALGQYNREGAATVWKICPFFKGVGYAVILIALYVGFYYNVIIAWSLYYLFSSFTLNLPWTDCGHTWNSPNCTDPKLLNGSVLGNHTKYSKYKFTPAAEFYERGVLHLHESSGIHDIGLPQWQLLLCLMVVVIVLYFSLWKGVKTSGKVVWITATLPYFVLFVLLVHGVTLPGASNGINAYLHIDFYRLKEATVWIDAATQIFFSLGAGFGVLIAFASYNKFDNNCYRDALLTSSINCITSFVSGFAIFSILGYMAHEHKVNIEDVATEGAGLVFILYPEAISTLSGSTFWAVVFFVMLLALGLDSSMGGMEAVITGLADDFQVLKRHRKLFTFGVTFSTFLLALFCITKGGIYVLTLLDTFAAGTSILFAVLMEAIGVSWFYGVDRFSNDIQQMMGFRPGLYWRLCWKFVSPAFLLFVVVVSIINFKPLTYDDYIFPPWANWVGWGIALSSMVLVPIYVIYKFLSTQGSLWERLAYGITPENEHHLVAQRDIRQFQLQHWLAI
Experimental: Cell pastes of HEK-293 cells transfected with a human norepinephrine transporter cDNA were prepared. The cell pastes were resuspended in 400 to 700 ml of Krebs-HEPES assay buffer (25 mM HEPES, 122 mM NaCl, 3 mM KCl, 1.2 mM MgSO4, 1.3 mM CaCl2, and 11 mM glucose, pH 7.4) with a Polytron homogenizer at setting 7 for 30 seconds. Aliquots of membranes (5 mg/ml protein) were stored in liquid nitrogen until used.
The binding assay was set up in Beckman deep-well polypropylene plates with a total volume of 250 μl containing: drug (10^−5M to 10^−12M), cell membranes, and […] [^125I]-RTI-55 (Perkin Elmer, NEX-272; specific activity 2200 Ci/mmol). The reaction was incubated by gentle agitation for 90 minutes at room temperature and was terminated by filtration through Whatman GF/C filter plates using a Brandel 96-well plate harvester. Scintillation fluid (100 μl) was added to each well, and bound [^125I]-RTI-55 was determined using a Wallac Trilux Beta Plate Counter. Test compounds were run in duplicate, and specific binding was defined as the difference between binding in the presence and absence of 10 μM desipramine.
Excel and GraphPad Prism software were used for data calculation and analysis. IC50 values were converted to Ki values using the Cheng-Prusoff equation. The Ki values (nM) for the hNET are reported below in Table 1.

[3] = molecular target: T2, human serotonin transporter (hSERT) (Homo sapiens, UniProt P31645); assay: hSERT receptor binding, [125I]-RTI-55, HEK-293 membranes
T2 construct: expressed in transfected cells; host or cells: HEK-293, membranes
T2 sequence (P31645 whole entry): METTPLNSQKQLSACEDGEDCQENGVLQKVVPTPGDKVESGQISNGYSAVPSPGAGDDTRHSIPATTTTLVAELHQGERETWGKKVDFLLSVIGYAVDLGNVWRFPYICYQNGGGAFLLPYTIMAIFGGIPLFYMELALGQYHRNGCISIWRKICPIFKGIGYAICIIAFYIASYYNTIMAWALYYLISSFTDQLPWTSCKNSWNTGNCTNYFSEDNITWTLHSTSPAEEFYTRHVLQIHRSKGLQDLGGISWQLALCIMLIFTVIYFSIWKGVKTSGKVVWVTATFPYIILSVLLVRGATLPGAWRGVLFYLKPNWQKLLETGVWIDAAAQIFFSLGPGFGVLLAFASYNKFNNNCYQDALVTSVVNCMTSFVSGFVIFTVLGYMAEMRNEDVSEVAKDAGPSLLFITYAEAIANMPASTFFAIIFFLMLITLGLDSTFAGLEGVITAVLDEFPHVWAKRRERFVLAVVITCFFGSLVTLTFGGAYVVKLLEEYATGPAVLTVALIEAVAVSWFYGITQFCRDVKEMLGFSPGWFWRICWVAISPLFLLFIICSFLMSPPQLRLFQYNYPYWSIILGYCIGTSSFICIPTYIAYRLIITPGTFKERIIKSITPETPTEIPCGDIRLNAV
Experimental: Cell pastes of HEK-293 cells transfected with a human serotonin transporter cDNA were prepared. […] Aliquots of membranes (−2.5 mg/ml protein) were stored in liquid nitrogen until used.
The reaction was incubated and gently agitated for 90 minutes at room temperature, and terminated by removal of assay volume. […] Test compounds were run in duplicate, and specific binding was defined as the difference between binding in the presence and absence of 10 μM citalopram. Excel and GraphPad Prism software were used for data calculation and analysis. IC50 values were converted to Ki values using the Cheng-Prusoff equation.

[4] = male Sprague-Dawley rats, 10 mg/kg subcutaneously, PWT 1 hour after single dose, mean of eight animals, normalized for vehicle
[5] = [125I]-RTI-55, HEK-293 membranes, Cheng-Prusoff, read-out: SERT Ki

Row | Molecule | Ki [2] [nM] | Ki [3, 5] [nM] | inhibition in vivo at 10 mg/kg ([1]; 1 h) [%] | inhibition in vivo at 10 mg/kg [1, 4] [%] | Ki [3] [nM]
1 | CCOc1ccccc1O[C@@H](c1ccccc1)[C@@H]1CNCCO1 [(2S)-2-[(1S)-(2-ethoxyphenoxy)(phenyl)methyl]morpholine, reference compound] |  |  | 17 |  | 
2 | Fc1cccc([C@H](Oc2ccc(F)cc2Cl)[C@@H]2CNCCO2)c1 [Example 37, (2S)-2-[(1S)-(2-chloro-4-fluorophenoxy)-(3-fluorophenyl)methyl]morpholine hydrochloride] | 13.1 | 52.2 |  | 80.3 | 
3 | COc1cc(Cl)ccc1O[C@@H](c1cccc(F)c1)[C@@H]1CNCCO1 [Example 45, (2S)-2-[(1S)-(4-Chloro-2-methoxyphenoxy)(3-fluorophenyl)methyl] morpholine hydrochloride] | 10.5 |  | 54.6 |  | 30
4 | COc1cc(F)ccc1O[C@@H](c1cccc(F)c1)[C@@H]1CNCCO1 [Example 46, (2S)-2-[(1S)-(4-Fluoro-2-methoxyphenoxy)(3-fluorophenyl)methyl] morpholine hydrochloride] | 15.1 | 222 |  | 46.1 | 
5 | Fc1cccc([C@H](Oc2cc(F)cc(F)c2Cl)[C@@H]2CNCCO2)c1 [Example 48, (2S)-2-[(1S)-(2-Chloro-3,5-difluorophenoxy)(3-fluorophenyl)methyl] morpholine hydrochloride] | 16.5 | 80 |  | 6.5 | 
6 | COc1cc(F)ccc1O[C@@H](c1cccc(Cl)c1)[C@@H]1CNCCO1 [Example 52, (2S)-2-[(1S)-(3-Chlorophenyl) (4-fluoro-2-methoxyphenoxy)methyl] morpholine hydrochloride] | 549 | 194 |  | 7 | 
7 | COc1cccc([C@H](Oc2ccc(C)cc2OC)[C@@H]2CNCCO2)c1 [Example 62, (2S)-2-[(1S)-(2-Methoxy-4-methylphenoxy) (3-methoxyphenyl)methyl] morpholine hydrochloride] | 15.3 | 153 |  | 40.5 | 
8 | COc1cccc([C@H](Oc2ccc(F)cc2Br)[C@@H]2CNCCO2)c1 [Example 70, (2S)-2-[(1S)-(2-Bromo-4-fluorophenoxy) (3-methoxyphenyl)methyl] morpholine hydrochloride] | 11.9 | 111 |  | 27.3 | 
9 | COc1cc(C)ccc1O[C@@H](c1cccc(F)c1)[C@@H]1CNCCO1 [Example 79, (2S)-2-[(1S)-(3-Fluorophenyl)(2-methoxy-4-methylphenoxy)-methyl]morpholine hydrochloride] | 12.6 | 100 |  | 99.5 | 
10 | COc1cc(Br)ccc1O[C@@H](c1ccccc1)[C@@H]1CNCCO1 [Example 94, (2S)-2-[(1S)-(4-Bromo-2-methoxyphenoxy)phenylmethyl] morpholine fumarate] | 12.1 | 22.3 |  |  | 
11 | COc1cc(C(F)(F)F)ccc1O[C@@H](c1ccccc1)[C@@H]1CNCCO1 [Example 99, (2S)-2-[(1S)-(2-Methoxy-4-trifluoromethylphenoxy)phenylmethyl] morpholine fumarate] | 188 | 35.8 |  |  | 
12 | COc1cc(C)ccc1O[C@@H](c1cccc(Cl)c1)[C@@H]1CNCCO1 [Example 101, (2S)-2-[(1S)-(3-Chlorophenyl) (2-methoxy-4-methyl phenoxy)methyl] morpholine fumarate] | 19.4 | 67.1 |  |  | 
13 | COc1cc(Cl)ccc1O[C@@H](c1ccccn1)[C@@H]1CNCCO1 [Example 103, (2S)-2-[(1S)-(4-chloro-2-methoxyphenoxy)(pyridin-2-yl)methyl]morpholine fumarate] | 12.8 | 101 |  |  | 
14 | Fc1cc(Cl)ccc1O[C@@H](c1ccccn1)[C@@H]1CNCCO1 [Example 104, (2S)-2-[(1S)-(4-chloro-2-fluorophenoxy)(pyridin-2-yl)methyl]morpholine fumarate] | 21.1 | 486 |  |  | 
15 | COc1ccc(O[C@@H](c2ccccn2)[C@@H]2CNCCO2)c(Cl)c1 [Example 106, (2S)-2-[(1S)-(2-chloro-4-methoxyphenoxy)(pyridin-2-yl)methyl]morpholine fumarate] | 13.8 | 216 |  |  | 
16 | (2S)-2-[(1S)-Pentachlorophenyloxy phenyl methyl] morpholine fumarate [Example 95] | 587 | 39.6 |  |  | 

Second part, led by results:

Row | Ki [2] [nM] | Ki [3, 5] [nM] | Molecule | inhibition in vivo at 10 mg/kg ([1]; 1 h) [%] | inhibition in vivo at 10 mg/kg [1, 4] [%] | Ki [3] [nM]
17 | 7.3 | 126 | Fc1cccc([C@H](Oc2cc(F)ccc2Cl)[C@@H]2CNCCO2)c1 [Example 41, (2S)-2-[(1S)-(2-Chloro-5-fluorophenoxy)(3-fluorophenyl)methyl] morpholine hydrochloride] |  | 21.1 | 
18 | 13.6 | 152 | Cc1cccc([C@H](Oc2ccc(F)cc2Cl)[C@@H]2CNCCO2)c1 [Example 56, (2S)-2-[(1S)-(2-Chloro-4-fluorophenoxy)-m-tolyl-methyl] morpholine hydrochloride] |  | 35.6 | 
19 | 4.4 | 127 | Fc1c(Cl)cccc1O[C@@H](c1ccccc1)[C@@H]1CNCCO1 [Example 80, (2S)-2-[(1S)-(3-chloro-2-fluoro-phenoxy)-phenyl-methyl]-morpholine fumarate salt] |  | 40 | 
20 | 14.3 | 652 | Fc1cc(F)c(O[C@@H](c2ccccc2)[C@@H]2CNCCO2)c(F)c1 [Example 86, (2S)-2-[(1S)-Phenyl-(2,4,6-trifluorophenoxy)methyl] morpholine fumarate] |  |  | 
21 | 420 | 760 | FC(F)(F)c1ccc(Cl)c(O[C@@H](c2ccccc2)[C@@H]2CNCCO2)c1 [Example 88, (2S)-2-[(1S)-(2-Chloro-5-trifluoromethylphenoxy)phenylmethyl] morpholine fumarate] |  |  | 
22 | 228 | 26.7 | COc1c(Cl)c(Cl)cc(Cl)c1O[C@@H](c1ccccc1)[C@@H]1CNCCO1 [Example 91, (2S)-2-[(1S)-Phenyl-(3,4,6-trichloro-2-methoxyphenoxy)methyl] morpholine fumarate] |  |  | 
23 | 86.8 | 71.7 | COc1c(Cl)cccc1O[C@@H](c1ccccc1)[C@@H]1CNCCO1 [Example 92, (2S)-2-[(1S)-(3-Chloro-2-methoxyphenoxy)phenylmethyl] morpholine fumarate] |  |  | 
24 | 25.7 | 47 | COc1ccc(O[C@@H](c2ccccc2)[C@@H]2CNCCO2)c(Cl)c1 [Example 96, (2S)-2-[(1S)-(2-Chloro-4-methoxyphenoxy)phenylmethyl] morpholine fumarate] |  |  | 
25 | 42.5 | 134 | COc1ccc(Cl)c(O[C@@H](c2ccccc2)[C@@H]2CNCCO2)c1 [Example 97, (2S)-2-[(1S)-(2-Chloro-5-methoxyphenoxy)phenylmethyl] morpholine fumarate] |  |  | 
26 | 755 | 49.6 | Clc1cc(Cl)c(O[C@@H](c2ccccc2)[C@@H]2CNCCO2)c(Cl)c1 [Example 98, (2S)-2-[(1S)-Phenyl-(2,4,6-trichlorophenoxy)methyl] morpholine fumarate] |  |  | 
27 | 33 | 32.9 | COc1cc(Cl)ccc1O[C@@H](c1cccc(Cl)c1)[C@@H]1CNCCO1 [Example 100, (2S)-2-[(1S)-(4-Chloro-2-methoxyphenoxy) (3-chloro phenyl)methyl] morpholine fumarate] |  |  | 
